How the values were obtained:
osteoclast formation = biological target: osteoclast formation
Description: Cytochemical staining for TRAP is widely used for identifying osteoclasts in vivo and in vitro. Naphthol AS-MX phosphate 5 mg. Sigma, St. Louis, Mo.) is resolved in 0.5 ml of N,N-dimethylformamide (Wako). Thirty milligrams of fast red violet LB salt (Sigma) and 50 ml of 0.1 M sodium acetate buffer (pH 5.0) containing 50 mM sodium tartratet are added to the mixture (the TRAP-staining solution). Cells are fixed with 3.7% (v/v) formaldehyde in Ca^2−- and Mg^2+-free phosphate-buffered saline [PBS(−)] for 10 min. fixed again with ethanol-acetone (50:50, v:v) for 1 min. and incubated with the TRAP-staining solution for 10 min. at room temperature. TRAP-positive osteoclasts appear as red cells. The incubation period longer than 10 min. should be avoided since cells other than osteoclasts become weakly positive with time. After staining, cells are washed with distilled water, and TRAP-positive multinucleated cells having three or more nuclei are counted as osteoclasts under a microscope.

[1] = test system: TRANCE-induced marrow cultures; experiment: TRANCE-induced marrow cultures; format: cell-based; details: reciprocal dose-dependence of WP9QY and TRANCE
Description: This peptide (5-500 μM) was tested for its effect on osteoclast formation using the co-culture system induced by 1,250H2D3 and PGE2. […] There was a reciprocal dose-dependence of WP9QY and TRANCE. Thus, WP9QY is capable of interfering not only with TNF/TNF receptor (1) interaction but also with RANK Ligand/RANK interaction, thereby decreasing the osteoclastogenic potential of this cytokine.

L929 lymphocytes = details: Takasaki et al. 1997; cited from earlier work
[2] = biological target: TNF-related activation-induced cytokine (TRANCE); experiment: cell-based or functional assay

| Molecule | IC50 osteoclastogenesis relative to IC50 TNF/TNF receptor (1) interaction (osteoclast formation; 250 μM vs 5 μM) [fold] | effect on osteoclastogenesis (osteoclast formation; co-culture system, peptide 5-500 μM) | IC50 (osteoclast formation; read-out: IC50, inhibition of osteoclastogenesis, co-culture system induced by 1,250H2D3 and PGE2, peptide 5-500 μM) [µM] | effect on TRANCE-induced marrow cultures [1] | antagonism of effects of TNF-binding to TNF-α receptor (1) (L929 lymphocytes) | osteoclast formation in the co-culture system induced by 1,25(OH)2D3 and PGE2 (IC50) [2] [µM] |
| --- | --- | --- | --- | --- | --- | --- |
| CC(C)C[C@@H]1NC(=O)[C@H](Cc2ccc(O)cc2)NC(=O)[C@H](CCC(N)=O)NC(=O)[C@H](CO)NC(=O)[C@H](Cc2c[nH]c3ccccc23)NC(=O)[C@@H](NC(=O)[C@@H](N)Cc2ccc(O)cc2)CSSC[C@@H](C(=O)N[C@@H](Cc2ccc(O)cc2)C(=O)O)NC1=O [WP9QY] | 50 | dose- and time-dependently inhibited | 250 | inhibits TRANCE-induced marrow cultures | efficiently antagonized | – |
| WP9QY (peptide) | – | – | – | – | – | 250 |

— US8003628B2, “Methods of inhibiting osteoclast activity” (The Trustees of The University of Pennsylvania, priority 1999, dated 2011)
